Oligonucleotides are given in HELM: sugar(base)linkage, 5' to 3'; d 2'-deoxyribose, r ribose, m 2'-O-methylribose, p phosphate. ss, as = sense and antisense strand

In the OligoGym collection one finds normalised inhibition (eCFP-eYFP dual reporter) data, which are given here for 14 substances.
Note: test concentration or dose not given here.

This data set has as its target Mmp7 (rat). Description: reporter assay of Huesken 2005. To be noted: siRNA. (In general: A reporter such as luciferase makes a cellular process visible.)
“RNA1{r(A)p.r(G)p.r(A)p.r(A)p.r(G)p.r(U)p.r(G)p.r(A)p.r(C)p.r(C)p.r(G)p.r(C)p.r(A)p.r(C)p.r(U)p.r(U)p.r(C)p.r(A)p.r(G)p.d(T)p.d(T)}|RNA2{r(C)p.r(U)p.r(G)p.r(A)p.r(A)p.r(G)p.r(U)p.r(G)p.r(C)p.r(G)p.r(G)p.r(U)p.r(C)p.r(A)p.r(C)p.r(U)p.r(U)p.r(C)p.r(U)p.d(C)p.d(C)}$$$RNA1{StrandType:ss}|RNA2{StrandType:as}$”: the normalised inhibition (eCFP-eYFP dual reporter) was found to be 32.9%.

For “RNA1{r(A)p.r(G)p.r(A)p.r(A)p.r(U)p.r(U)p.r(C)p.r(U)p.r(C)p.r(A)p.r(C)p.r(U)p.r(A)p.r(A)p.r(U)p.r(G)p.r(C)p.r(C)p.r(A)p.d(T)p.d(T)}|RNA2{r(U)p.r(G)p.r(G)p.r(C)p.r(A)p.r(U)p.r(U)p.r(A)p.r(G)p.r(U)p.r(G)p.r(A)p.r(G)p.r(A)p.r(A)p.r(U)p.r(U)p.r(C)p.r(U)p.d(G)p.d(C)}$$$RNA1{StrandType:ss}|RNA2{StrandType:as}$”, the normalised inhibition (eCFP-eYFP dual reporter) worked out at 107%.

As to “RNA1{r(A)p.r(G)p.r(A)p.r(C)p.r(A)p.r(U)p.r(C)p.r(A)p.r(U)p.r(A)p.r(A)p.r(U)p.r(U)p.r(G)p.r(G)p.r(C)p.r(U)p.r(U)p.r(C)p.d(T)p.d(T)}|RNA2{r(G)p.r(A)p.r(A)p.r(G)p.r(C)p.r(C)p.r(A)p.r(A)p.r(U)p.r(U)p.r(A)p.r(U)p.r(G)p.r(A)p.r(U)p.r(G)p.r(U)p.r(C)p.r(U)p.d(G)p.d(C)}$$$RNA1{StrandType:ss}|RNA2{StrandType:as}$”, the normalised inhibition (eCFP-eYFP dual reporter) came to 99.4%.

With “RNA1{r(A)p.r(G)p.r(G)p.r(C)p.r(C)p.r(U)p.r(C)p.r(G)p.r(G)p.r(C)p.r(G)p.r(G)p.r(A)p.r(G)p.r(A)p.r(U)p.r(G)p.r(C)p.r(U)p.d(T)p.d(T)}|RNA2{r(A)p.r(G)p.r(C)p.r(A)p.r(U)p.r(C)p.r(U)p.r(C)p.r(C)p.r(G)p.r(C)p.r(C)p.r(G)p.r(A)p.r(G)p.r(G)p.r(C)p.r(C)p.r(U)p.d(G)p.d(G)}$$$RNA1{StrandType:ss}|RNA2{StrandType:as}$”, the normalised inhibition (eCFP-eYFP dual reporter) is 68.5%.

“RNA1{r(A)p.r(G)p.r(G)p.r(C)p.r(G)p.r(C)p.r(A)p.r(G)p.r(A)p.r(A)p.r(U)p.r(U)p.r(A)p.r(U)p.r(C)p.r(U)p.r(U)p.r(A)p.r(G)p.d(T)p.d(T)}|RNA2{r(C)p.r(U)p.r(A)p.r(A)p.r(G)p.r(A)p.r(U)p.r(A)p.r(A)p.r(U)p.r(U)p.r(C)p.r(U)p.r(G)p.r(C)p.r(G)p.r(C)p.r(C)p.r(U)p.d(G)p.d(T)}$$$RNA1{StrandType:ss}|RNA2{StrandType:as}$”: the normalised inhibition (eCFP-eYFP dual reporter) is 66%.

In the case of “RNA1{r(A)p.r(G)p.r(G)p.r(C)p.r(G)p.r(U)p.r(G)p.r(A)p.r(A)p.r(C)p.r(U)p.r(U)p.r(C)p.r(C)p.r(U)p.r(G)p.r(U)p.r(U)p.r(U)p.d(T)p.d(T)}|RNA2{r(A)p.r(A)p.r(A)p.r(C)p.r(A)p.r(G)p.r(G)p.r(A)p.r(A)p.r(G)p.r(U)p.r(U)p.r(C)p.r(A)p.r(C)p.r(G)p.r(C)p.r(C)p.r(U)p.d(G)p.d(A)}$$$RNA1{StrandType:ss}|RNA2{StrandType:as}$”, the normalised inhibition (eCFP-eYFP dual reporter) worked out at 91.1%.

As to “RNA1{r(A)p.r(G)p.r(G)p.r(G)p.r(G)p.r(A)p.r(G)p.r(A)p.r(U)p.r(C)p.r(A)p.r(C)p.r(G)p.r(G)p.r(A)p.r(G)p.r(A)p.r(C)p.r(A)p.d(T)p.d(T)}|RNA2{r(U)p.r(G)p.r(U)p.r(C)p.r(U)p.r(C)p.r(C)p.r(G)p.r(U)p.r(G)p.r(A)p.r(U)p.r(C)p.r(U)p.r(C)p.r(C)p.r(C)p.r(C)p.r(U)p.d(T)p.d(G)}$$$RNA1{StrandType:ss}|RNA2{StrandType:as}$”, the normalised inhibition (eCFP-eYFP dual reporter) was found to be 102%.

Take “RNA1{r(A)p.r(G)p.r(U)p.r(A)p.r(C)p.r(U)p.r(G)p.r(G)p.r(A)p.r(C)p.r(G)p.r(G)p.r(A)p.r(U)p.r(G)p.r(G)p.r(U)p.r(G)p.r(A)p.d(T)p.d(T)}|RNA2{r(U)p.r(C)p.r(A)p.r(C)p.r(C)p.r(A)p.r(U)p.r(C)p.r(C)p.r(G)p.r(U)p.r(C)p.r(C)p.r(A)p.r(G)p.r(U)p.r(A)p.r(C)p.r(U)p.d(C)p.d(A)}$$$RNA1{StrandType:ss}|RNA2{StrandType:as}$”: the normalised inhibition (eCFP-eYFP dual reporter) worked out at 90.5%.

With “RNA1{r(A)p.r(G)p.r(U)p.r(C)p.r(U)p.r(U)p.r(A)p.r(C)p.r(A)p.r(A)p.r(A)p.r(G)p.r(G)p.r(A)p.r(C)p.r(G)p.r(A)p.r(C)p.r(A)p.d(T)p.d(T)}|RNA2{r(U)p.r(G)p.r(U)p.r(C)p.r(G)p.r(U)p.r(C)p.r(C)p.r(U)p.r(U)p.r(U)p.r(G)p.r(U)p.r(A)p.r(A)p.r(G)p.r(A)p.r(C)p.r(U)p.d(G)p.d(A)}$$$RNA1{StrandType:ss}|RNA2{StrandType:as}$”, the normalised inhibition (eCFP-eYFP dual reporter) is 98.7%.

On to “RNA1{r(A)p.r(G)p.r(U)p.r(G)p.r(C)p.r(A)p.r(G)p.r(U)p.r(G)p.r(G)p.r(A)p.r(C)p.r(A)p.r(A)p.r(A)p.r(C)p.r(U)p.r(G)p.r(A)p.d(T)p.d(T)}|RNA2{r(U)p.r(C)p.r(A)p.r(G)p.r(U)p.r(U)p.r(U)p.r(G)p.r(U)p.r(C)p.r(C)p.r(A)p.r(C)p.r(U)p.r(G)p.r(C)p.r(A)p.r(C)p.r(U)p.d(G)p.d(G)}$$$RNA1{StrandType:ss}|RNA2{StrandType:as}$”, for which the normalised inhibition (eCFP-eYFP dual reporter) was found to be 110%.

Turning to “RNA1{r(A)p.r(G)p.r(U)p.r(G)p.r(C)p.r(C)p.r(A)p.r(G)p.r(A)p.r(U)p.r(G)p.r(U)p.r(U)p.r(G)p.r(C)p.r(A)p.r(G)p.r(A)p.r(A)p.d(T)p.d(T)}|RNA2{r(U)p.r(U)p.r(C)p.r(U)p.r(G)p.r(C)p.r(A)p.r(A)p.r(C)p.r(A)p.r(U)p.r(C)p.r(U)p.r(G)p.r(G)p.r(C)p.r(A)p.r(C)p.r(U)p.d(C)p.d(C)}$$$RNA1{StrandType:ss}|RNA2{StrandType:as}$”, the normalised inhibition (eCFP-eYFP dual reporter) is 115%.

“RNA1{r(A)p.r(G)p.r(U)p.r(U)p.r(C)p.r(U)p.r(G)p.r(U)p.r(G)p.r(A)p.r(U)p.r(G)p.r(U)p.r(A)p.r(C)p.r(C)p.r(C)p.r(U)p.r(A)p.d(T)p.d(T)}|RNA2{r(U)p.r(A)p.r(G)p.r(G)p.r(G)p.r(U)p.r(A)p.r(C)p.r(A)p.r(U)p.r(C)p.r(A)p.r(C)p.r(A)p.r(G)p.r(A)p.r(A)p.r(C)p.r(U)p.d(G)p.d(G)}$$$RNA1{StrandType:ss}|RNA2{StrandType:as}$”: the normalised inhibition (eCFP-eYFP dual reporter) stood at 116%.

As to “RNA1{r(A)p.r(G)p.r(U)p.r(U)p.r(C)p.r(U)p.r(U)p.r(C)p.r(G)p.r(G)p.r(U)p.r(U)p.r(U)p.r(G)p.r(C)p.r(C)p.r(G)p.r(G)p.r(A)p.d(T)p.d(T)}|RNA2{r(U)p.r(C)p.r(C)p.r(G)p.r(G)p.r(C)p.r(A)p.r(A)p.r(A)p.r(C)p.r(C)p.r(G)p.r(A)p.r(A)p.r(G)p.r(A)p.r(A)p.r(C)p.r(U)p.d(T)p.d(C)}$$$RNA1{StrandType:ss}|RNA2{StrandType:as}$”, the normalised inhibition (eCFP-eYFP dual reporter) was 53.8%.

For “RNA1{r(A)p.r(U)p.r(C)p.r(U)p.r(U)p.r(A)p.r(G)p.r(G)p.r(A)p.r(A)p.r(A)p.r(U)p.r(U)p.r(U)p.r(U)p.r(A)p.r(C)p.r(C)p.r(U)p.d(T)p.d(T)}|RNA2{r(A)p.r(G)p.r(G)p.r(U)p.r(A)p.r(A)p.r(A)p.r(A)p.r(U)p.r(U)p.r(U)p.r(C)p.r(C)p.r(U)p.r(A)p.r(A)p.r(G)p.r(A)p.r(U)p.d(A)p.d(A)}$$$RNA1{StrandType:ss}|RNA2{StrandType:as}$”, the normalised inhibition (eCFP-eYFP dual reporter) is 79.6%.
